Test results from the supplement of paper PMC10307832.

Key:
Assay in all cases: relative viability (nuclei count vs DMSO), 5 days (fraction); higher = more cells survive
[1] = compound: CS(=O)(=O)c1ccc(-c2cnc(N)c(C(=O)Nc3ccccc3)n2)cc1 [VE-821] + Nc1ncn([C@H]2C[C@H](O)[C@@H](CO)O2)c(=O)n1 [Decitabine] (partner 2 µM)
Summary of the method: (§1)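 Relative viability is defined as nuclei in treated wells over nuclei in vehicle wells. Duplicate plates were run and medians reported. Lung cancer cell lines in 1536-well plates were dosed by pin tool one day after seeding, with one drug or with a fixed anchor-drug dose plus five library-drug doses (not always all listed) in √10 steps, and nuclei were counted after 5 days.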

[2] = compound: CS(=O)(=O)c1ccc(-c2cnc(N)c(C(=O)Nc3ccccc3)n2)cc1 [VE-821] + N=C(N)NC(=N)NCCc1ccccc1 [Phenformin] (partner 250 µM)
Summary of the method: as §1

[3] = compound: N#CC[C@H](C1CCCC1)n1cc(-c2ncnc3[nH]ccc23)cn1 [Ruxolitinib] + CS(=O)(=O)CCNCc1ccc(-c2ccc3ncnc(Nc4ccc(OCc5cccc(F)c5)c(Cl)c4)c3c2)o1 [Lapatinib] (partner 2 µM)
Summary of the method: as §1

[4] = compound: CS(=O)(=O)c1ccc(C(=O)Nc2ccc(Cl)c(-c3ccccn3)c2)c(Cl)c1 [Vismodegib] + Cc1nc(NC(=O)N2CCC[C@H]2C(N)=O)sc1-c1ccnc(C(C)(C)C(F)(F)F)c1 [Alpelisib] (partner 2 µM)
Summary of the method: as §1

Row | Cell Line | relative viability ([1]; first compound 0.08 µM) | relative viability ([1]; first compound 0.253 µM) | relative viability ([1]; first compound 0.8 µM) | relative viability ([1]; first compound 2.53 µM) | relative viability ([1]; first compound 8 µM) | relative viability ([2]; first compound 0.08 µM) | relative viability ([2]; first compound 0.253 µM) | relative viability ([2]; first compound 0.8 µM) | relative viability ([2]; first compound 2.53 µM) | relative viability ([2]; first compound 8 µM) | relative viability ([3]; first compound 0.08 µM) | relative viability ([3]; first compound 0.253 µM) | relative viability ([3]; first compound 0.8 µM) | relative viability ([3]; first compound 2.53 µM) | relative viability ([3]; first compound 8 µM) | relative viability ([4]; first compound 0.08 µM) | relative viability ([4]; first compound 0.253 µM) | relative viability ([4]; first compound 0.8 µM) | relative viability ([4]; first compound 2.53 µM) | relative viability ([4]; first compound 8 µM)
1 | COR-L 105 | 0.666 | 0.579 | 0.58 | 0.613 | 0.518 | 0.519 | 0.325 | 0.472 | 0.387 | 0.343 | 0.394 | 0.341 | 0.454 | 0.461 | 0.333 | 0.832 | 0.882 | 0.847 | 0.839 | 0.868
2 | LOU-NH91 | 0.833 | 0.813 | 0.812 | 0.836 | 0.805 | 0.742 | 0.701 | 0.693 | 0.706 | 0.734 | 0.786 | 0.666 | 0.844 | 0.764 | 0.865 | 0.693 | 0.782 | 0.699 | 0.695 | 0.755
3 | HCC-15 | 0.74 | 0.726 | 0.69 | 0.954 | 0.766 | 0.625 | 0.473 | 0.506 | 0.526 | 0.438 | 0.859 | 0.905 | 0.869 | 0.786 | 0.779 | 0.894 | 0.822 | 0.871 | 0.866 | 0.83
4 | A-427 | 0.592 | 0.53 | 0.587 | 0.572 | 0.442 | 0.341 | 0.319 | 0.293 | 0.365 | 0.225 | 0.875 | 1.14 | 1.09 | 1.11 | 0.967 | 1.02 | 1.04 | 0.965 | 1.09 | 1.1
5 | SW 1573 | 0.538 | 0.458 | 0.433 | 0.511 | 0.416 | 0.405 | 0.293 | 0.358 | 0.456 | 0.162 | 1.05 | 0.99 | 1.16 | 1.07 | 1.09 | 0.7 | 0.691 | 0.717 | – | 0.754
6 | NCI-H2087 | 0.381 | 0.286 | 0.309 | 0.363 | 0.275 | 0.562 | 0.486 | 0.427 | 0.438 | 0.375 | 1.05 | 1.1 | 1.16 | 0.786 | 1.04 | 1.02 | 1.07 | 1.05 | 1 | 0.995
7 | LK-2 | 0.323 | 0.338 | 0.415 | 0.384 | 0.256 | 0.639 | 0.366 | 0.459 | 0.925 | 0.374 | – | 0.893 | 1.23 | 0.997 | 0.964 | 1.24 | 1.04 | 0.805 | 0.952 | 1.22
8 | NCI-H2023 | 0.249 | 0.259 | 0.205 | 0.194 | 0.13 | 0.481 | 0.394 | 0.282 | 0.272 | 0.139 | 0.921 | 0.693 | 1.75 | 0.807 | 0.728 | 0.584 | 0.534 | 0.626 | 0.546 | 0.495
